Test results from publication PMC6315173, “Characterization of the Apelin/Elabela Receptors (APLNR) in Chickens, Turtles, and Zebrafish: Identification of a Novel Apelin-Specific Receptor in Teleosts” (Frontiers in Endocrinology, 2018).
Residues, ends and D or L forms follow the SMILES beside them. No end group written: not given here.

How the values were obtained:
[1] = biological target: T1, zebrafish APLNR2a (zfAPLNR2a) (Danio rerio, UniProt Q7SZP9); assay: pGL3-CRE-luciferase reporter assay, HEK293 cells expressing zebrafish APLNR2a; assay type: cell-based; conditions: SEM
T1 construct: the open reading frame (ORF) of each APLNR was amplified from the animal; expressed in transfected cells; host or cells: HEK293
T1 sequence (Q7SZP9 1-362): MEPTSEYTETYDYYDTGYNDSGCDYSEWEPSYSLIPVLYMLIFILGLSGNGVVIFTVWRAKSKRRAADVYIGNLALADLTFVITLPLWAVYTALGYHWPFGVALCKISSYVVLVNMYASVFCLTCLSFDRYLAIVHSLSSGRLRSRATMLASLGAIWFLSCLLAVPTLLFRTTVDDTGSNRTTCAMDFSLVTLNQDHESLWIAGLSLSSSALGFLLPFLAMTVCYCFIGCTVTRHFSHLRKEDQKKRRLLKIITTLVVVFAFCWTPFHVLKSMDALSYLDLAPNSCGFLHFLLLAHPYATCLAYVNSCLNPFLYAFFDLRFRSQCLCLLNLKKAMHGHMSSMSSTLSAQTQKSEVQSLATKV
Method: (§1) In brief, HEK293 cells were cultured on a six-well plate and grown for 24 h before transfection. The cells were then transfected with a mixture containing 700 ng pGL3-CRE-Luciferase reporter construct (or pGL4-SRE-Luciferase reporter construct), 200 ng of receptor expression plasmid [or empty pcDNA3.1(+) vector as a negative control], and 2 μl jetPRIME (Polyplus Transfection, Illkirch, France) in 200 μl buffer. Twenty-four hour later, HEK293 cells were sub-cultured into a 96-well plate at 37°C for an additional 24 h before treatment. After removal of medium from the 96-well plate, the cells were treated with 100 μl peptide-containing medium (or peptide-free medium) for 6 h in the presence or absence of forskolin (5 μM). Finally, HEK293 cells were lysed with 1 × passive lysis buffer for luciferase assay (Promega, Madison, WI, USA) and the luciferase activity of the cell lysate was measured by a Multimode microplate Reader (TriStar LB 941, EG&G Berthold, Germany) according to the manufacturer's instruction.
(§2) The luciferase activity in each treatment group was expressed as the relative fold changes as compared with their respective control groups. The data were analyzed by non-linear regression followed by one-way ANOVA using GraphPad Prism 5 (GraphPad, San Diego, CA, USA). To validate the results, all experiments were repeated at least twice.

[2] = biological target: T2, zebrafish APLNR2b (zfAPLNR2b) (Danio rerio, UniProt A0T2N3); assay: pGL3-CRE-luciferase reporter assay, HEK293 cells expressing zebrafish APLNR2b; assay type: cell-based; conditions: SEM
T2 construct: the open reading frame (ORF) of each APLNR was amplified from the animal; expressed in transfected cells; host or cells: HEK293
T2 sequence (A0T2N3 1-359): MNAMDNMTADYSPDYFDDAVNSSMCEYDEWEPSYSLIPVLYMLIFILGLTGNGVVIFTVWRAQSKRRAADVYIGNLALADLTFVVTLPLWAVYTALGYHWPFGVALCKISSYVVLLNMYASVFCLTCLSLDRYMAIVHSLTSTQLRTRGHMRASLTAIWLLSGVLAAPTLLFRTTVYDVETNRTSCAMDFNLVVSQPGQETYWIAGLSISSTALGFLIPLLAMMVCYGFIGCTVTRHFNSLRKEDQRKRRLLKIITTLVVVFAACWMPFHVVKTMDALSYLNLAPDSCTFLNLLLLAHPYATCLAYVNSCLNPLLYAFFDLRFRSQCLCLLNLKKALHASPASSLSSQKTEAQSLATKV
Method: as §1, §2

[3] = test system: zebrafish APLNR3a (zfAPLNR3a); assay: pGL3-CRE-luciferase reporter assay, HEK293 cells expressing zebrafish APLNR3a; assay type: cell-based, zebrafish (Danio rerio); conditions: HEK293 cells transiently expressing zfAPLNR3a, inhibition of forskolin (5 μM)-stimulated pGL3-CRE-luciferase activity, 6 h, mean ± S.E. of 3 independent experiments, N = EC50 cannot be evaluated
Method: as §1, §2

zebrafish APLNR3a = assay: Western blot of ERK1/2 phosphorylation, HEK293 cells expressing zebrafish APLNR3a; assay type: cell-based, zebrafish (Danio rerio)
Method: (§3) HEK293 cells cultured in a 60-mm culture dish (Nunc, Rochester, NY, USA) with 70% confluence were transfected by 1 μg of receptor expression plasmid using jetPRIME reagent according to manufacturers' instruction (Polyplus Transfection, Illkirch, France). After the 24-h transfection, HEK293 cells were sub-cultured into a 24-well plate, serum-deprived for 12 h and then treated by peptides for 10 min. These cells were washed with cold PBS and lysed by RIPA Lysis Buffer (Roche, Basel, Switzerland) on ice. Western blot was used to examine ERK1/2 phosphorylation and β-actin levels in cell lysates.

zebrafish APLNR2a = biological target: T3, zebrafish APLNR2a (Danio rerio, UniProt Q7SZP9); assay: Western blot of ERK1/2 phosphorylation, HEK293 cells expressing zebrafish APLNR2a; assay type: cell-based; conditions: 100 nM, duplicates, time-dependent (5, 10, 20 min)
T3 construct: the open reading frame (ORF) of each APLNR was amplified from the animal; expressed in transfected cells; host or cells: HEK293
T3 sequence (Q7SZP9 1-362): T1 sequence (Q7SZP9 1-362)
Method: as §3, with “After the 24-h transfection, HEK293 cells were sub-cultured into a 24-well plate, serum-deprived for 12 h and then treated by peptides for 10 min.” left out

[4] = test system: tilapia APLNR3b (tiAPLNR3b); assay: pGL3-CRE-luciferase reporter assay, HEK293 cells expressing tilapia APLNR3b; assay type: cell-based, Nile tilapia (Oreochromis niloticus); conditions: HEK293 cells transiently expressing tiAPLNR3b, inhibition of forskolin (5 μM)-stimulated pGL3-CRE-luciferase activity, 6 h, mean ± S.E. of 3 independent experiments, N = EC50 cannot be evaluated
Method: as §1, §2

CC(C)C[C@H](NC(=O)[C@H](CC(N)=O)NC(=O)[C@H](CC(C)C)NC(=O)[C@H](Cc1ccccc1)NC(=O)[C@H](CC(=O)O)NC(=O)[C@H](Cc1c[nH]cn1)NC(=O)[C@H](CCCCN)NC(=O)[C@@H](NC(=O)CNC(=O)[C@H](Cc1c[nH]cn1)NC(=O)[C@H](CCCCN)NC(=O)[C@@H](N)CC(=O)O)[C@@H](C)O)C(=O)N[C@@H](CCCNC(=N)N)C(=O)N[C@@H](CCCNC(=N)N)C(=O)N[C@@H](CCCCN)C(=O)N[C@@H](Cc1ccc(O)cc1)C(=O)N[C@@H](CCCNC(=N)N)C(=O)N[C@@H](CCCNC(=N)N)C(=O)N[C@@H](Cc1c[nH]cn1)C(=O)N[C@@H](CC(N)=O)C(=O)N[C@@H](CS)C(=O)N1CCC[C@H]1C(=O)N[C@@H](CCCCN)C(=O)N[C@@H](CCCCN)C(=O)N[C@@H](CCCNC(=N)N)C(=O)N[C@@H](CS)C(=O)N[C@@H](CC(C)C)C(=O)N1CCC[C@H]1C(=O)N[C@@H](CC(C)C)C(=O)N[C@@H](Cc1c[nH]cn1)C(=O)N[C@@H](CO)C(=O)N[C@@H](CCCNC(=N)N)C(=O)N[C@H](C(=O)N1CCC[C@H]1C(=O)N[C@@H](Cc1ccccc1)C(=O)N1CCC[C@H]1C(=O)O)C(C)C [zfELA-36] (H-DKHGTKHDFLNLRRKYRRHNCPKKRCLPLHSRVPFP-OH; N-terminus and C-terminus assumed)
EC50 [1]: 1.61 ± 0.8 nM
EC50 [2]: 1.29 ± 0.9 nM
EC50 [3]: > 100 nM
ERK1/2 phosphorylation, Western blot (zebrafish APLNR3a): not ELA-36
phosphorylation of ERK1/2, Western blot (zebrafish APLNR2a): can enhance phosphorylation of ERK1/2
EC50 [4]: > 100 nM

TPLRQNPARAGRSQRPAGWRRRRPRPRLSHKGPMPF [zfApelin-36]
EC50 [1]: 0.89 ± 0.44 nM
EC50 [2]: 0.51 ± 0.31 nM
EC50 ([3]; SEM): 0.45 ± 0.12 nM
ERK1/2 phosphorylation, Western blot (zebrafish APLNR3a): can induce ERK1/2 phosphorylation
phosphorylation of ERK1/2, Western blot (zebrafish APLNR2a): can enhance phosphorylation of ERK1/2
EC50 ([4]; SEM): 0.77 ± 0.24 nM
